Measured values reported in PMC3401633 (Bioorganic & medicinal chemistry letters, 2011).

Target: human isoprenylcysteine carboxyl methyltransferase (hIcmt) (Homo sapiens, UniProt O60725)
Experiment: vapor diffusion assay
Format: biochemical
Conditions: VDA

Sequence of human isoprenylcysteine carboxyl methyltransferase (hIcmt) (O60725 whole entry, the tested form may be a part): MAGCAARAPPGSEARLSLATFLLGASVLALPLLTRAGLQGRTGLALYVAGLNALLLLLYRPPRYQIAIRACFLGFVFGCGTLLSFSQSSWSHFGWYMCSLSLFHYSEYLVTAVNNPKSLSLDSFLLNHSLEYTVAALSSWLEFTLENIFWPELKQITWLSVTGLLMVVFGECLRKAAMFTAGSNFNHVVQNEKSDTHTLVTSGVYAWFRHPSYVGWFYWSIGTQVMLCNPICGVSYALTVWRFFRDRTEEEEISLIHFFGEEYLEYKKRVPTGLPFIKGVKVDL

hIcmt inhibition in words	SMILES
poor hIcmt inhibitors	CC(C)=CCC/C(C)=C/CC/C(C)=C/CSC[C@H](NS(=O)(=O)c1c(C)c(C)c(C)c(C)c1C)C(=O)O [Compound 6a]
remarkably poor hIcmt inhibitor	COC(=O)[C@H](CSC/C=C(\C)CC/C=C(\C)CCC=C(C)C)NS(=O)(=O)c1cccs1 [Compound 10]
